Laboratory results taken from patent US20090281090A1, “BIOMARKERS FOR THE PREDICTION OF RESPONSIVENESS TO CLOZAPINE TREATMENT” (NOVARTIS AG, priority 2004, published 2009).

Legend:
[1] = system: patients with schizophrenia or schizoaffective disorders; assay: InterSePT pharmacogenetic analysis: DAT1 3'UTR VNTR polymorphism vs Type 1 event / drug response; type: in vivo, human; conditions: for Adjusted Hazard Ratio (95% CI), association between VNTR polymorphism and Type 1 event: Cox model adjusted for age, gender, substance abuse, lifetime suicide attempts; for Unadjusted Hazard Ratio (95% CI), association between VNTR polymorphism and Type 1 event: Cox proportional hazards model
Experimental: Association between a VNTR polymorphism in the 3′UTR region of the DAT1 gene and clozapine response. The objective of this EXAMPLE was to evaluate potential association between a VNTR polymorphism in the 3′UTR region of the Dopamine Transporter 1 gene (SLC6A3; DAT1) and drug response in the patients with schizophrenia or schizoaffective disorders treated with clozapine.
A retrospective pharmacogenetic analysis was conducted in an attempt to evaluate potential association between a variable number of tandem repeats (VNTR) polymorphism in the 3′UTR region of the DAT1 gene and drug response in the patients with schizophrenia or schizoaffective disorders treated with clozapine.
A multicenter, randomized, two-year study comparing the risk for suicidal behaviour in patients treated with clozapine vs olanzapine had already been conducted in patients with schizophrenia or schizoaffective disorders (see above). […] See, published PCT patent application WO 2004/074513.
Genotyping. Four hundred and two samples from the patients enrolled in the InterSePT study (see above) were collected and genotyped for the VNTR polymorphism. A total of 402 subjects enrolled in the InterSePT study consented to Pharmacogenetics study in accordance with protocols approved by local ethics committees. 15 ml of blood were collected from the patients at the trial sites. The DNA was extracted by Covance (Indianapolis, USA) using the PUREGENE™ DNA Isolation Kit (D50K) according to the manufacturer's recommendations. VNTR genotyping was performed using PCR approach as described by Kidd (Kidd Laboratory, http://info.med.yale.edu/genetics/kkidd/SLC6A3—3VNTR.html). The sense and antisense PCR primers were 5′-GGTGTAGGGAACGGCCTGAGAG-3′ (SEQ ID NO:3) and 5′-CTTCCTGGAGGTCACGGCTCAAGG-3′ (SEQ ID NO:4), respectively. Approximately 100-200 ng of genomic DNA was needed for each assay. Thirty cycles of PCR were performed with the condition of 94° C. (30″), 62° C. (30″) and 72° C. (30″). PCR products were analyzed using 2% agarose gel.
Clinical assessments. For the primary efficacy variable, time (in days, after randomization) to meeting any one of the following two criteria: (a) a significant suicide attempt; and (b) hospitalization due to imminent suicide risk. Type 1 Event is defined as combination of above two items. For secondary efficacy variables, the following were determined: (a) percentage of subjects with significant suicide attempts; (b) percentage of subjects with hospitalization due to imminent suicide risk; (c) change from baseline in the total score of the Positive and Negative Syndrome Scale (PANSS); (d) change from baseline in the Positive subtotal of PANSS; and (e) change from baseline in the Negative subtotal of PANSS.
Statistic analysis. The SAS Version 8.2 for Windows package was used for statistical analysis. The continuous and dischotomous variables in demographic differences between the genotype groups were compared using non-parametric ANOVA and Fisher's exact test, respectively. The differential effects of genotypes on the time to Type 1 event were evaluated using log rank test. Age, gender, substance abuse, and lifetime suicide attempts were adjusted in further analysis using the Cox proportional hazards model.

[2] = system: patients with schizophrenia or schizoaffective disorders; assay: as above; type: in vivo, human
[3] = All with schizoaffective disorder, genotype L/L (10≦/10≦)
[4] = All with schizoaffective disorder, genotype S/L (10≦/9≧)
[5] = All with schizoaffective disorder, genotype S/S (9≧/9≧)
[6] = All with schizophrenia, genotype L/L (10≦/10≦)
[7] = All with schizophrenia, genotype S/L (10≦/9≧)
[8] = All with schizophrenia, genotype S/S (9≧/9≧)
[9] = Caucasian, VNTR genotype 9≧/9≧, end of study
[10] = Caucasian, VNTR genotype 10≦/9≧, end of study
[11] = Caucasian, VNTR genotype 10≦/10≦, end of study
[12] = Caucasians with schizoaffective disorder, genotype L/L (10≦/10≦)
[13] = Caucasians with schizoaffective disorder, genotype S/L (10≦/9≧)
[14] = Caucasians with schizoaffective disorder, genotype S/S (9≧/9≧)
[15] = Caucasians with schizophrenia, genotype L/L (10≦/10≦)
[16] = Caucasians with schizophrenia, genotype S/L (10≦/9≧)
[17] = Caucasians with schizophrenia, genotype S/S (9≧/9≧)
[18] = Whole race group, VNTR genotype 9≧/9≧, end of study
[19] = Whole race group, VNTR genotype 10≦/9≧, end of study
[20] = Whole race group, VNTR genotype 10≦/10≦, end of study

## Cc1cc2c(s1)Nc1ccccc1N=C2N1CCN(C)CC1 [Olanzapine, olanzapine]
[1]; [3]
  End point Type 1 event: No: 22 (60%) numbers of subjects (%)
  End point Type 1 event: Yes: 15 (40%) numbers of subjects (%)
[1]; [4]
  End point Type 1 event: No: 22 (67%) numbers of subjects (%)
  End point Type 1 event: Yes: 11 (33%) numbers of subjects (%)
[1]; [5]
  End point Type 1 event: No: 4 (57%) numbers of subjects (%)
  End point Type 1 event: Yes: 3 (43%) numbers of subjects (%)
[1]; [6]
  End point Type 1 event: No: 50 (82%) numbers of subjects (%)
  End point Type 1 event: Yes: 11 (18%) numbers of subjects (%)
[1]; [7]
  End point Type 1 event: No: 32 (76%) numbers of subjects (%)
  End point Type 1 event: Yes: 10 (24%) numbers of subjects (%)
[1]; [8]
  End point Type 1 event: No: 8 (80%) numbers of subjects (%)
  End point Type 1 event: Yes: 2 (20%) numbers of subjects (%)
[1]; [9]
  End point Type 1 event: No: 6 (60%) numbers of subjects (%)
  End point Type 1 event: Yes: 4 (40%) numbers of subjects (%)
[1]; [10]
  End point Type 1 event: No: 45 (76%) numbers of subjects (%)
  End point Type 1 event: Yes: 14 (24%) numbers of subjects (%)
[1]; [11]
  End point Type 1 event: No: 59 (76%) numbers of subjects (%)
  End point Type 1 event: Yes: 19 (24%) numbers of subjects (%)
[1]; [12]
  End point Type 1 event: No: 22 (67%) numbers of subjects (%)
  End point Type 1 event: Yes: 11 (33%) numbers of subjects (%)
[1]; [13]
  End point Type 1 event: No: 21 (75%) numbers of subjects (%)
  End point Type 1 event: Yes: 7 (25%) numbers of subjects (%)
[1]; [14]
  End point Type 1 event: No: 3 (50%) numbers of subjects (%)
  End point Type 1 event: Yes: 3 (50%) numbers of subjects (%)
[1]; [15]
  End point Type 1 event: No: 37 (82%) numbers of subjects (%)
  End point Type 1 event: Yes: 8 (18%) numbers of subjects (%)
[1]; [16]
  End point Type 1 event: No: 24 (77%) numbers of subjects (%)
  End point Type 1 event: Yes: 7 (23%) numbers of subjects (%)
[1]; [17]
  End point Type 1 event: No: 3 (75%) numbers of subjects (%)
  End point Type 1 event: Yes: 1 (25%) numbers of subjects (%)
[1]; Caucasians
  Adjusted Hazard Ratio (95% CI), association between VNTR polymorphism and Type 1 event: 0.542 (0.185-1.590)
  Unadjusted Hazard Ratio (95% CI), association between VNTR polymorphism and Type 1 event: 0.548 (0.194-1.547)
[1]; [18]
  End point Type 1 event: No: 12 (71%) numbers of subjects (%)
  End point Type 1 event: Yes: 5 (29%) numbers of subjects (%)
[1]; [19]
  End point Type 1 event: No: 54 (72%) numbers of subjects (%)
  End point Type 1 event: Yes: 21 (28%) numbers of subjects (%)
[1]; [20]
  End point Type 1 event: No: 72 (73%) numbers of subjects (%)
  End point Type 1 event: Yes: 26 (27%) numbers of subjects (%)
[1]; whole population
  Adjusted Hazard Ratio (95% CI), association between VNTR polymorphism and Type 1 event: 0.824 (0.317-2.138)
  Unadjusted Hazard Ratio (95% CI), association between VNTR polymorphism and Type 1 event: 0.886 (0.353-2.225)

## CN1CCN(C2=Nc3cc(Cl)ccc3Nc3ccccc32)CC1 [Clozapine, 8-chloro-11-(4-methyl-1-piperazinyl)-5H-dibenzo[be][1,4]diazepine]
[1]; [3]
  End point Type 1 event: No: 30 (75%) numbers of subjects (%)
  End point Type 1 event: Yes: 10 (25%) numbers of subjects (%)
[1]; [4]
  End point Type 1 event: No: 25 (83%) numbers of subjects (%)
  End point Type 1 event: Yes: 5 (17%) numbers of subjects (%)
[1]; [5]
  End point Type 1 event: No: 7 (70%) numbers of subjects (%)
  End point Type 1 event: Yes: 3 (30%) numbers of subjects (%)
[1]; [6]
  End point Type 1 event: No: 53 (87%) numbers of subjects (%)
  End point Type 1 event: Yes: 8 (13%) numbers of subjects (%)
[1]; [7]
  End point Type 1 event: No: 35 (87%) numbers of subjects (%)
  End point Type 1 event: Yes: 5 (13%) numbers of subjects (%)
[1]; [8]
  End point Type 1 event: No: 4 (50%) numbers of subjects (%)
  End point Type 1 event: Yes: 4 (50%) numbers of subjects (%)
[1]; [9]
  End point Type 1 event: No: 9 (56%) numbers of subjects (%)
  End point Type 1 event: Yes: 7 (44%) numbers of subjects (%)
[1]; [10]
  End point Type 1 event: No: 45 (85%) numbers of subjects (%)
  End point Type 1 event: Yes: 8 (15%) numbers of subjects (%)
[1]; [11]
  End point Type 1 event: No: 67 (83%) numbers of subjects (%)
  End point Type 1 event: Yes: 14 (17%) numbers of subjects (%)
[1]; [12]
  End point Type 1 event: No: 28 (76%) numbers of subjects (%)
  End point Type 1 event: Yes: 9 (24%) numbers of subjects (%)
[1]; [13]
  End point Type 1 event: No: 22 (85%) numbers of subjects (%)
  End point Type 1 event: Yes: 4 (15%) numbers of subjects (%)
[1]; [14]
  End point Type 1 event: No: 7 (70%) numbers of subjects (%)
  End point Type 1 event: Yes: 3 (30%) numbers of subjects (%)
[1]; [15]
  End point Type 1 event: No: 39 (89%) numbers of subjects (%)
  End point Type 1 event: Yes: 5 (11%) numbers of subjects (%)
[1]; [16]
  End point Type 1 event: No: 23 (85%) numbers of subjects (%)
  End point Type 1 event: Yes: 4 (15%) numbers of subjects (%)
[1]; [17]
  End point Type 1 event: No: 2 (33%) numbers of subjects (%)
  End point Type 1 event: Yes: 4 (67%) numbers of subjects (%)
[1]; Caucasians
  Adjusted Hazard Ratio (95% CI), association between VNTR polymorphism and Type 1 event: 0.296 (0.120-0.733)
  Unadjusted Hazard Ratio (95% CI), association between VNTR polymorphism and Type 1 event: 0.307 (0.130-0.723)
[1]; [18]
  End point Type 1 event: No: 11 (61%) numbers of subjects (%)
  End point Type 1 event: Yes: 7 (39%) numbers of subjects (%)
[1]; [19]
  End point Type 1 event: No: 60 (86%) numbers of subjects (%)
  End point Type 1 event: Yes: 10 (14%) numbers of subjects (%)
[1]; [20]
  End point Type 1 event: No: 83 (82%) numbers of subjects (%)
  End point Type 1 event: Yes: 18 (18%) numbers of subjects (%)
[1]; according to the SLC6A3 genotypes
  patients calculated to be poor responders: about 10%
[1]; whole population
  Adjusted Hazard Ratio (95% CI), association between VNTR polymorphism and Type 1 event: 0.396 (0.167-0.936)
  Unadjusted Hazard Ratio (95% CI), association between VNTR polymorphism and Type 1 event: 0.342 (0.148-0.788)
[2]; subpopulation with the two risk factors (VNTR in 3'-UTR and exon 9 polymorphism of SLC6A3)
  patients who experienced Type 1 events at the end of study: About 40%
[2]; subpopulation without the two risk factors (VNTR in 3'-UTR and exon 9 polymorphism of SLC6A3)
  patients who had Type 1 events at the end of study: 15%
